pIC50, pKd: −log10 of the molar value.
Assays:
[1] = Plasma protein binding test, rat; assay type: in vitro ADME
Experimental: • 1. Test compound and control compound were dissolved in dimethyl sulfoxide (DMSO) to achieve 10 mM stock solutions. DMSO working solutions were prepared at 400 μM. To prepare the loading matrix, compound working solutions (5 μL) were added in a 1:200 ratio to blank matrix (995 μL), and mixed thoroughly. • 2. To prepare the time zero (TO) samples to be used for recovery determination, 50 μL aliquots of loading matrix were transferred in triplicate to the sample collection plate. The samples were immediately matched with opposite blank buffer to obtain a final volume of 100 μL of 1:1 matrix/dialysis buffer (v/v) in each well. 500 μL of stop solution were added to these TO samples. They were then stored at 2-8° C. pending further processes along with other post-dialysis samples. • 3. To load the dialysis device, an aliquot of 150 μL of the loading matrix was transferred to the donor side of each dialysis well in triplicate, and 150 μL of the dialysis buffer was loaded to the receiver side of the well. The dialysis plate was placed in a humidified incubator at 37° C. with 5% CO2 on a shaking platform that rotated slowly (about 100 rpm) for 4 hours • 4. At the end of the dialysis, aliquots of 50 μL of samples were taken from both the buffer side and the matrix side of the dialysis device. […]
The % Unbound and % Bound were calculated using the following equations: […]

JAK1 JH1 = JAK1 JH1 (Homo sapiens (Human), UniProt P23458); assay: Competitive binding assay (kinase-tagged phage, qPCR), JAK1 JH1
Chain of JAK1 JH1 (P23458 875-1153): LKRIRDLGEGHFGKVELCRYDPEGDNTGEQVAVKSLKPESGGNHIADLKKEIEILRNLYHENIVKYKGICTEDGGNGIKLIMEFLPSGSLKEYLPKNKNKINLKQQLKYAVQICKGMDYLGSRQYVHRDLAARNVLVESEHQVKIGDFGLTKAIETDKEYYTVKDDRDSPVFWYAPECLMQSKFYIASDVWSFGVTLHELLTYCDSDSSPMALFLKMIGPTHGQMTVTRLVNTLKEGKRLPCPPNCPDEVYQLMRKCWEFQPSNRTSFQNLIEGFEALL
Experimental: For most assays, kinase-tagged T7 phage strains were prepared in an E. coli host derived from the BL21 strain. E. coli were grown to log-phase and infected with T7 phage and incubated with shaking at 32° C. until lysis. The lysates were centrifuged and filtered to remove cell debris. The remaining kinases were produced in HEK-293 cells and subsequently tagged with DNA for qPCR detection. Streptavidin coated magnetic beads were treated with biotinylated small molecule ligands for 30 minutes at room temperature to generate affinity resins for kinase assays. The liganded beads were blocked with excess biotin and washed with blocking buffer (SeaBlock (Pierce), 1% BSA, 0.05% Tween 20, 1 mM DTT) to remove unbound ligand and to reduce non-specific binding. […] Test compounds were prepared as 111X stocks in 100% DMSO. Dissociation constants (Kds) were determined using an 11-point 3-fold compound dilution series with three DMSO control points. All compounds for Kd measurements are distributed by acoustic transfer (non-contact dispensing) in 100% DMSO. The compounds were then diluted directly into the assays such that the final concentration of DMSO was 0.9%. All reactions performed in polypropylene 384-well plate. Each was a final volume of 0.02 ml. The assay plates were incubated at room temperature with shaking for 1 hour and the affinity beads were washed with wash buffer (1×PBS, 0.05% Tween 20). The beads were then re-suspended in elution buffer (1×PBS, 0.05% Tween 20, 0.5 μM nonbiotinylated affinity ligand) and incubated at room temperature with shaking for 30 minutes. The kinase concentration in the eluates was measured by qPCR.
An 11-point 3-fold serial dilution of each test compound was prepared in 100% DMSO at 100× final test concentration and subsequently diluted to 1× in the assay (final DMSO concentration=1%). Most Kds were determined using a compound top concentration=30,000 nM. If the initial Kd determined was <0.5 nM (the lowest concentration tested), the measurement was repeated with a serial dilution starting at a lower top concentration.
Binding constants (Kds) were calculated with a standard dose-response curve using the Hill equation: […]
The Hill Slope was set to −1.
Curves were fitted using a non-linear least square fit with the Levenberg-Marquardt algorithm.

[2] = system: production of CXCL-10 stimulated by IFNα in PBMC; assay: ELISA: production of CXCL-10 stimulated by IFNα in PBMC; assay type: cell-based; settings: CXCL-10 production stimulated by IFNα in PBMC; for pIC50: ELISA
Experimental: • 1. Soak plate: Add 300 μL 1×washing solution and let stand for 30 seconds. After discarding the washing solution, dry the microporous plate on absorbent paper. • 2. Add standard: Add 100 μL of 2-fold standard to standard well. Add 100 μL standard dilution (serum/plasma sample) or culture medium (cell culture supernatant sample) to blank well. • 3. Add sample: Serum/plasma: Add 50 μL 1×assay buffer and 50 μL sample to sample well. Cell culture supernatant: Add 100 μL cell culture supernatant to sample well. • 4. Add detection antibody: Add 50 μL diluted detection antibody (1:100 diluted) to each well. Make sure steps 4, 5 and 6 are added continuously without interruption. The sampling process was completed within 15 minutes. • 5. Incubation: Use sealing plate film to seal the plate. shake at 300 rpm and incubate for 2 hours at room temperature. • 6. Washing: Discard the liquid, add 300 μL of washing solution and wash the plate 6 times. pat dry on blotting paper after each wash. To obtain the desired experimental performance, the residual liquid must be completely removed. • 7. Enzyme addition: Add 100 μL diluted horseradish peroxidase labeled streptavidin to each well (1:100 diluted). • 8. Incubation: Seal the plate with a new sealing film. shake at 300 rpm and incubate at room temperature for 45 minutes. • 9. Washing. Repeat step […]. • 10. Add substrate for color development: Add 100 μL of color development substrate TMB to each well, keep away from light, and incubate at room temperature for 5-30 minutes. • 11. Add Stop Solution: Add 100 μL stop solution to each well. The color changed from blue to yellow. If the color appears green or the color changes unevenly, gently tap the frame of the plate to mix well. • 12. Assay readout: Within 30 minutes, perform dual wavelength detection using a microplate reader to measure the OD at the absorption maximum at 450 nm and reference wavelengths at 570 nm or 630 nm. The calibrated OD value is the measured value at 450 nm minus the measured value at 570 nm or 630 nm.

Row | SMILES | fraction unbound at 4 h, 2 μM [1] | pKd (JAK1 JH1) | activity compared with BMS986165 [2] | pIC50 [2]
1 | CCC(=O)c1cnc(NC(=O)C2CC2)cc1Nc1cccc(-c2cc(P(C)(C)=O)n(C)n2)c1OC [Compound B2, N-(4-((3-(5-(dimethylphosphoryl)-1-methyl-1H-pyrazol-3-yl)-2-methoxyphenyl)amino)-5-propionylpyridin-2-yl)cyclopropanecarboxamide] | 0.055 | < 4.52 |  | 
2 | CCC(=O)c1cnc(NC(=O)C2CC2)cc1Nc1cccc(-c2cc(P(=O)(C3CC3)C3CC3)n(C)n2)c1OC [Compound B37, N-(4-((3-(5-(dicyclopropylphosphoryl)-1-methyl-1H-pyrazol-3-yl)-2-methoxyphenyl)amino)-5-propionylpyridin-2-yl)cyclopropanecarboxamide] |  | < 4.52 | more active than BMS986165 | 7.55
3 | [2H]C([2H])([2H])NC(=O)c1nnc(NC(=O)C2CC2)cc1Nc1cccc(-c2cc(P(=O)(C3CC3)C3CC3)n(C)n2)c1OC [Compound B41, 6-(cyclopropanecarboxamido)-4-((3-(5-(dicyclopropylphosphoryl)-1-methyl-1H-pyrazol-3-yl)-2-methoxyphenyl)amino)-N-(methyl-d3)pyridazine-3-carboxamide] | 0.045 |  |  | 7.40

Reference: US20240343747A1, “Heteroaryl compounds as inhibitors of TYK2, composition and application thereof” (Accro Bioscience (HK) Limited, priority 2021, published 2024)
